ChEMBL document CHEMBL4364304, “Discovery, synthesis, and in vitro evaluation of a novel bioactive peptide for ACE and DPP-IV inhibitory activity” (Eur J Med Chem, 2019)
Residues, ends and D or L forms follow the SMILES beside them.

Experiments:
[1] = target: T1, Angiotensin-converting enzyme (Sus scrofa, UniProt F1RRW5); assay: (§1) Inhibition of porcine angiotensin converting enzyme assessed as release of hippuric acid using hippuryl-histidyl-leucine as substrate measured after 30 mins by spectrophotometry analysis
T1 sequence (F1RRW5 whole entry): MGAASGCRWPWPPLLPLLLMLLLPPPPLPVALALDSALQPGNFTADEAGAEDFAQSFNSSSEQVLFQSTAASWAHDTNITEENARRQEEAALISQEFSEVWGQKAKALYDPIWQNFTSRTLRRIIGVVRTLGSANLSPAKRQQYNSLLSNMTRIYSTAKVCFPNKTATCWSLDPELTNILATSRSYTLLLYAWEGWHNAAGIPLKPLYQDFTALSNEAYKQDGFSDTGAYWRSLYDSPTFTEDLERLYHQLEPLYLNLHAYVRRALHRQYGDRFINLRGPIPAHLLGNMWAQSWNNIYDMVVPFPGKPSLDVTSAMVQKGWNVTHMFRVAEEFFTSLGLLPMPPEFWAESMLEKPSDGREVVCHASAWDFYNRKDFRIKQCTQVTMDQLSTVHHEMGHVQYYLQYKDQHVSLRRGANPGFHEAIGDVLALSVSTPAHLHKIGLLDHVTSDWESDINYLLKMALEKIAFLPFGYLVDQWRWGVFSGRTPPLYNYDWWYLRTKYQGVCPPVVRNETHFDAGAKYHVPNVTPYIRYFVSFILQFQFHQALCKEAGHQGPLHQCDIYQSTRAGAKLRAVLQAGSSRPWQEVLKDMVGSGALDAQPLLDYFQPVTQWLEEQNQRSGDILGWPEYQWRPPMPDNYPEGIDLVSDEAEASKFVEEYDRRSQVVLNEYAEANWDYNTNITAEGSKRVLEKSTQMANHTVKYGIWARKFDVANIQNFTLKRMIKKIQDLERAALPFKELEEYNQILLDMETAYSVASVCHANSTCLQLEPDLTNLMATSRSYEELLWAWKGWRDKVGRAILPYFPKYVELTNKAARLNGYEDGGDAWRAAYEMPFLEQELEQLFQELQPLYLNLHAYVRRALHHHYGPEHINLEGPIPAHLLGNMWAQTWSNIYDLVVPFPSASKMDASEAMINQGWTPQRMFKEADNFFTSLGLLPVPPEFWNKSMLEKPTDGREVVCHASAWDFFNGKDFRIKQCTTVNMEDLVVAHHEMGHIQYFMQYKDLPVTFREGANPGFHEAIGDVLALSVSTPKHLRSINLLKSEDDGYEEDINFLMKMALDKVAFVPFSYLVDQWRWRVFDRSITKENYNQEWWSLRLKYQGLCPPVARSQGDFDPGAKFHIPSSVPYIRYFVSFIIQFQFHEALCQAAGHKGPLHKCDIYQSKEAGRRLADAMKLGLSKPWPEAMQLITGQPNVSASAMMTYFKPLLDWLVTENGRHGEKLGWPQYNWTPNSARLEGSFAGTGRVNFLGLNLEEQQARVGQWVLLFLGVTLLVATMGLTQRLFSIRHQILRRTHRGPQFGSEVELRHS

[2] = target: T2, Angiotensin-converting enzyme (Sus scrofa) (UniProt F1RRW5); assay: as §1
T2 sequence (whole entry): T1 sequence (F1RRW5 whole entry)

Dipeptidyl peptidase 4 = Dipeptidyl peptidase 4 (Homo sapiens, UniProt P27487); assay: Inhibition of recombinant human DPP4 using H-Gly-Pro conjugated amino methyl coumarin as substrate by fluorometric assay
Dipeptidyl peptidase 4, sequence (P27487 whole entry): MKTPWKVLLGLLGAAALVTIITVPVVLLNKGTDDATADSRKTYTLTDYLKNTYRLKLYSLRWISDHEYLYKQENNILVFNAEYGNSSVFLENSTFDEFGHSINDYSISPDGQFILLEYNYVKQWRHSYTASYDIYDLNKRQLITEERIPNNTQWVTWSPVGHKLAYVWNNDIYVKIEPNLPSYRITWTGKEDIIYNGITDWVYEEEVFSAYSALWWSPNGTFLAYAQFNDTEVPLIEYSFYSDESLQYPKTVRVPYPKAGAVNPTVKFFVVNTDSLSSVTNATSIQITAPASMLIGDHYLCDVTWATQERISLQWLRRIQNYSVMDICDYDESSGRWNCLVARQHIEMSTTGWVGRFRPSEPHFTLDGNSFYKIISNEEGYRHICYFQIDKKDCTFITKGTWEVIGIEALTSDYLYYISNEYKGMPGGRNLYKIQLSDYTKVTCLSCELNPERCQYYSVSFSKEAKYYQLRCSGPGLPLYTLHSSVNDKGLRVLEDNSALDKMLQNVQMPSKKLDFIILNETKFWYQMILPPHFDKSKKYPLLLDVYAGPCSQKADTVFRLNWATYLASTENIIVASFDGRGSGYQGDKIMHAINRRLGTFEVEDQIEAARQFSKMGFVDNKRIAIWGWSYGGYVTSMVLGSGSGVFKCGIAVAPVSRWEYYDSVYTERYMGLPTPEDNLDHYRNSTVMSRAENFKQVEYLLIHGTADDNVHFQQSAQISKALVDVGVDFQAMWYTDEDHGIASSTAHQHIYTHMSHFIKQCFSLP

| IC50 [1] [µM] | inhibition [2] | IC50 (Dipeptidyl peptidase 4) [µM] | Compound |
| --- | --- | --- | --- |
| 300 |  |  | CC[C@H](C)[C@H](N)C(=O)N[C@@H](CCC(N)=O)C(=O)N[C@@H](CCCCN)C(=O)N[C@H](C(=O)N[C@@H](C)C(=O)NCC(=O)N[C@H](C(=O)N[C@@H](Cc1c[nH]c2ccccc12)C(=O)O)[C@@H](C)O)C(C)C (H-IQKVAGTW-OH) |
| 74.3 | Dose-dependent effect | 3830 | CC[C@H](C)[C@H](NC(=O)[C@H](CC(C)C)NC(=O)[C@@H]1CCCN1C(=O)[C@H](CC(C)C)NC(=O)[C@@H]1CCCN1C(=O)[C@@H](NC(=O)CN)[C@@H](C)CC)C(=O)O (H-GIPLPLI-OH) |
